In publication PMC9781101, “A High-Throughput Fluorescence Polarization-Based Assay for the SH2 Domain of STAT4” (Methods and Protocols, 2022):
Where two headings read alike, the source gives them in different places. Values belong to the molecule of their own block, whether it stands above or below them. Non-standard residues stand in square brackets, D forms with d. Residues, ends and D or L forms follow the SMILES beside them. No end group written: not given here. *: point of attachment. 5FAM = O=C1OC2(c3ccc(O)cc3Oc3cc(O)ccc32)c2ccc(C(=O)*)cc21; pY = N[C@@H](Cc1ccc(OP(=O)(O)O)cc1)C(=O)O

Assays:
[1] = biological target: T1, STAT4 SH2 domain (human STAT4 amino acids 136 to 705) (Homo sapiens, UniProt Q14765); assay: Fluorescence polarization direct binding assay, labelled phosphopeptides to truncated STAT4; details: for fold lower affinity for STAT4 than 5-CF-GpYLPQNID: ratio of Kd values
T1 sequence (Q14765 136-705): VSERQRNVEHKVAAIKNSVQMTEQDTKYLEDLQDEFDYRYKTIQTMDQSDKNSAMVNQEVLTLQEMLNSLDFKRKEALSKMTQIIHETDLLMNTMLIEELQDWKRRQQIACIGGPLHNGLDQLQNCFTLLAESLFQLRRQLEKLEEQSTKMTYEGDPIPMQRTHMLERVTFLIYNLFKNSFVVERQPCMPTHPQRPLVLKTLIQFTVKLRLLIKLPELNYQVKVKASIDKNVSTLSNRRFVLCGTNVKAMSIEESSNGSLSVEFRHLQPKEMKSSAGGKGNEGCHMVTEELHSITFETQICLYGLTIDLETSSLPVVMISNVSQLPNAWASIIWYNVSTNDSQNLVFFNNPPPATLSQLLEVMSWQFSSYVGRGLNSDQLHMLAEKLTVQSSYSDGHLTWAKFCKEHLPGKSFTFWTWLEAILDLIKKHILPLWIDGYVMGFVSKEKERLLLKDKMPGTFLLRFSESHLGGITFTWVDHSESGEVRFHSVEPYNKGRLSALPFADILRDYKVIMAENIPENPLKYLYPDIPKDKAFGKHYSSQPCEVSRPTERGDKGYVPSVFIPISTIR
Procedure: (§1) Binding of fluorescent-labelled peptides to the truncated STAT4 protein was analysed using an Infinite F500 plate reader (Tecan) as previously published for STAT5b [12]. Unless otherwise stated, FP assays were performed in a buffer consisting of 10 mM Tris/HCl, 50 mM NaCl, 1 mM EDTA, 0.1% (v/v) NP-40 substitute, 2% (v/v) DMSO and 1 mM DTT at a pH of 8.0. All steps were carried out at room temperature. For the binding assays shown in Figure 1, Figure 2 and Figure 3, the prediluted STAT4 protein was incubated for 1 h before addition of the fluorophore-labelled peptide, to mimic the incubation period with test compounds. For the inhibition assay shown in Figure 4, STAT4 was incubated with unlabelled peptide for 1 h before addition of the fluorophore-labelled peptide (final STAT4 concentration: 33 nM). Fluorescence polarization was read 1 h after addition of the labelled peptide, in non-treated black 384-well microplates (Corning). Fluorescent-labelled peptides were used at a final concentration of 10 nM unless otherwise stated. Binding and inhibition curves were plotted using OriginPro 2019 software (OriginLab). Fluorescence polarization values were normalized by subtracting the FP values of the wells containing the fluorophore-labelled peptides only. […] IC50 values from three independent experiments were used to calculate an average value and the corresponding standard deviation. IC50 values were converted to inhibition constants (Ki) using the published equation [20], with average values calculated as for IC50 values.

[2] = system: STAT4 R598A; details: FP, Figure 1b, compared with STAT4 wild-type
Procedure: Binding of fluorescent-labelled peptides to the truncated STAT4 protein was analysed using an Infinite F500 plate reader (Tecan) as previously published for STAT5b [12]. Unless otherwise stated, FP assays were performed in a buffer consisting of 10 mM Tris/HCl, 50 mM NaCl, 1 mM EDTA, 0.1% (v/v) NP-40 substitute, 2% (v/v) DMSO and 1 mM DTT at a pH of 8.0. All steps were carried out at room temperature. For the binding assays shown in Figure 1, Figure 2 and Figure 3, the prediluted STAT4 protein was incubated for 1 h before addition of the fluorophore-labelled peptide, to mimic the incubation period with test compounds. For the inhibition assay shown in Figure 4, STAT4 was incubated with unlabelled peptide for 1 h before addition of the fluorophore-labelled peptide (final STAT4 concentration: 33 nM). Fluorescence polarization was read 1 h after addition of the labelled peptide, in non-treated black 384-well microplates (Corning). Fluorescent-labelled peptides were used at a final concentration of 10 nM unless otherwise stated. […] Fluorescence polarization values were normalized by subtracting the FP values of the wells containing the fluorophore-labelled peptides only. […] IC50 values were converted to inhibition constants (Ki) using the published equation [20], with average values calculated as for IC50 values.

[3] = biological target: T2, STAT6 (amino acids 110 to 651) (Homo sapiens, UniProt P42226); assay: Fluorescence polarization direct binding assay, STAT6; details: FP, 10 nM labelled peptide; Figure S1
T2 sequence (P42226 110-651): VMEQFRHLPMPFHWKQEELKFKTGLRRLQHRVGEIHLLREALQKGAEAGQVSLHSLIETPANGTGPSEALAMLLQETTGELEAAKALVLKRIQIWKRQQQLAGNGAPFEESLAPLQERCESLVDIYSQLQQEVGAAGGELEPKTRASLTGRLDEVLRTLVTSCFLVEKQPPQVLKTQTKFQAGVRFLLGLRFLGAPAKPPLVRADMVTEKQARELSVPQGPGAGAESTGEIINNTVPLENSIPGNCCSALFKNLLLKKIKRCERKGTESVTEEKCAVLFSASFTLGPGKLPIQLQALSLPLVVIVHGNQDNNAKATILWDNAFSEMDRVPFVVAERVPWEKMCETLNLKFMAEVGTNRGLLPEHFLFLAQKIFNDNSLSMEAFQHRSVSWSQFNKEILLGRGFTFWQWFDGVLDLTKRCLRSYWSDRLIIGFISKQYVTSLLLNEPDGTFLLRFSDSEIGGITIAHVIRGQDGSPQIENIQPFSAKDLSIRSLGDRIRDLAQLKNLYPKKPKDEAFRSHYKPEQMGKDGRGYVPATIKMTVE

[4] = biological target: STAT3 (amino acids 127 to 722) (Mus musculus, UniProt P42227); assay: Fluorescence polarization direct binding assay, STAT3; set-up: species or system murine
[5] = biological target: T1, STAT4 SH2 domain (human STAT4 amino acids 136 to 705); assay: Fluorescence polarization competitive inhibition of binding between 5-CF-GpYLPQNID and STAT4; details: for IC50: SD; for inhibition: 33 nM STAT4, 10 nM probe
Procedure: as §1

[6] = system: STAT4; details: cited from earlier work; for IC50: read-out: IC50 against STAT4 in an ELISA
[7] = biological target: EPO receptor peptide (Homo sapiens, UniProt P19235, phosphotyrosine, 5-carboxyfluorescein); assay: fluorescence polarization
[8] = biological target: T3, IFN-γ receptor peptide (Homo sapiens, UniProt P15260, also: 5-carboxyfluorescein, site not given here); assay: fluorescence polarization
T3 chain: G[pY]DKPHVL

[9] = biological target: gp130 peptide (Homo sapiens, UniProt P40189, phosphotyrosine, 5-carboxyfluorescein); assay: fluorescence polarization

Sequence of STAT3 (amino acids 127 to 722) (P42227 127-722): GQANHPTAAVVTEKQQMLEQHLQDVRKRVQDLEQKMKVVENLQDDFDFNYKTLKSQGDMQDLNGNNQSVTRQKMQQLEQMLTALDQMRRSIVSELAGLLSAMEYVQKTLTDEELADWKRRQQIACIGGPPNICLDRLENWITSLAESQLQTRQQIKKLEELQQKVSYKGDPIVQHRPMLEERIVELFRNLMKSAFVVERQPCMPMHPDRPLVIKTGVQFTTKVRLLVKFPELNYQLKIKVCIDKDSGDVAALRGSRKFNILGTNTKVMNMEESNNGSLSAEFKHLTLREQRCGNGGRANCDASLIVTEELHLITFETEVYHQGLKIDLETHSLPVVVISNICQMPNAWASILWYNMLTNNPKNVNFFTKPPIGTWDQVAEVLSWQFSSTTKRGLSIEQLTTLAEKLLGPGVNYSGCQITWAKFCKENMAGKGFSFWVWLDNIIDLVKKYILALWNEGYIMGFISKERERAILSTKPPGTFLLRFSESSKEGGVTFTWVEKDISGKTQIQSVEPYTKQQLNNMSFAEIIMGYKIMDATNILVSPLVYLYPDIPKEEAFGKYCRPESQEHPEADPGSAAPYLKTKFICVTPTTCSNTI

Molecule: CC(C)C[C@H](NC(=O)[C@@H](NC(=O)[C@H](Cc1c[nH]cn1)NC(=O)[C@@H]1CCCN1C(=O)[C@H](CCCCN)NC(=O)[C@H](CC(=O)O)NC(=O)[C@H](Cc1ccc(OP(=O)(O)O)cc1)NC(=O)CNC(=O)c1ccc2c(c1)C(=O)OC21c2ccc(O)cc2Oc2cc(O)ccc21)C(C)C)C(=O)O [5-CF-GpYDKPHVL] (5FAM-G[pY]DKPHVL-OH)
Kd ([1]; SD): 1230 ± 284 nM

Molecule: CC[C@H](C)[C@H](NC(=O)[C@H](CC(N)=O)NC(=O)[C@H](CCC(N)=O)NC(=O)[C@@H]1CCCN1C(=O)[C@H](CC(C)C)NC(=O)[C@H](Cc1ccc(OP(=O)(O)O)cc1)NC(=O)CNC(=O)c1ccc2c(c1)C(=O)OC21c2ccc(O)cc2Oc2cc(O)ccc21)C(=O)N[C@@H](CC(=O)O)C(=O)O [5-CF-GpYLPQNID] (5FAM-G[pY]LPQNID-OH)
binding to STAT4 R598A (in words) [2]: almost completely abolished
Kd [3]: > 2560 nM
reduction in affinity for STAT4 by 8 h ([1]; 8 h after addition of labelled probe): no more than 35%
Kd ([1]; SD): 34 ± 4 nM
Kd ([4]; FP, 10 nM labelled peptide, Figure S1, mean ± SD of 3 independent experiments, SD): 131 ± 6 nM
weaker affinity for STAT3 than for STAT4 ([4]; ratio of Kd values STAT3 vs STAT4): fourfold

Molecule: CC(C)C[C@H](NC(=O)[C@H](Cc1ccc(OP(=O)(O)O)cc1)NC(=O)CNC(=O)c1ccc2c(c1)C(=O)OC21c2ccc(O)cc2Oc2cc(O)ccc21)C(=O)N[C@H](C(=O)N[C@@H](CC(C)C)C(=O)N[C@@H](CC(=O)O)C(=O)N[C@@H](CCCCN)C(=O)N[C@@H](Cc1c[nH]c2ccccc12)C(=O)O)C(C)C [5-CF-GpYLVLDKW]
Kd ([1]; SD): 267 ± 6 nM
fold lower affinity for STAT4 than 5-CF-GpYLPQNID ([1]; 10 nM labelled peptide): approximately 8 fold

Molecule: CC(=O)N[C@@H](Cc1ccc(OP(=O)(O)O)cc1)C(=O)N[C@@H](CC(C)C)C(=O)N1CCC[C@H]1C(=O)N[C@@H](CCC(N)=O)C(=O)N[C@H](C(=O)N[C@H](C(N)=O)C(C)C)[C@@H](C)O [Ac-pYLPQTV-NH2]
IC50 [5]: 1270 ± 100 nM
fold less active than Ac-GpYLPQNID ([5]; ratio of IC50 values): 2.6 fold

Molecule: CC(C)C[C@H](NC(=O)[C@H](Cc1c[nH]c2ccccc12)NC(=O)[C@H](CCCCN)NC(=O)[C@H](CC(=O)O)NC(=O)[C@H](CC(C)C)NC(=O)[C@@H](NC(=O)[C@H](CC(C)C)NC(=O)[C@H](Cc1ccc(OP(=O)(O)O)cc1)NC(=O)[C@@H](NC(=O)[C@@H](N)CC(=O)O)[C@@H](C)O)C(C)C)C(=O)O [DTpYLVLDKWL] (H-DT[pY]LVLDKWL-OH)
IC50 [5]: 4170 ± 130 nM

Molecule: CC(C)C[C@H](NC(=O)[C@@H](NC(=O)[C@H](Cc1c[nH]cn1)NC(=O)[C@@H]1CCCN1C(=O)[C@H](CCCCN)NC(=O)[C@H](CC(=O)O)NC(=O)[C@H](Cc1ccc(OP(=O)(O)O)cc1)NC(=O)CN)C(C)C)C(=O)O [GpYDKPHVL] (H-G[pY]DKPHVL-OH)
IC50 [5]: 31400 ± 6700 nM

Molecule: SHEGpYLPQNID
IC50 [6]: 390 nM

Molecule: SHEGpYLPWNID
fold less potent against STAT4 than SHEGpYLPQNID in an ELISA [6]: 2-3 fold
IC50 [6]: 930 nM

Second part, the molecule after the results:

binding to STAT4 (in words) ([1]; FP, 10 nM labelled peptide): did not bind
Molecule: 5-CF-GPMQSpTPLNG

Kd [1]: > 2560 nM
Molecule: CC[C@H](C)[C@H](NC(=O)[C@H](CCC(=O)O)NC(=O)[C@H](CCC(=O)O)NC(=O)[C@H](Cc1ccc(OP(=O)(O)O)cc1)NC(=O)CNC(=O)c1ccc2c(c1)C(=O)OC21c2ccc(O)cc2Oc2cc(O)ccc21)C(=O)N1CCC[C@H]1C(=O)O [5-CF-GpYEEIP] (5FAM-G[pY]EEIP-OH)

Kd ([1]; SD): 82 ± 2 nM
fold lower affinity for STAT4 than 5-CF-GpYLPQNID ([1]; 10 nM labelled peptide): 2.4 fold
Molecule: CC(C)C[C@H](NC(=O)[C@H](Cc1ccc(OP(=O)(O)O)cc1)NC(=O)CNC(=O)c1ccc2c(c1)C(=O)OC21c2ccc(O)cc2Oc2cc(O)ccc21)C(=O)N1CCC[C@H]1C(=O)N[C@@H](CCC(N)=O)C(=O)N[C@H](C(=O)N[C@H](C(N)=O)C(C)C)[C@@H](C)O [5-CF-GpYLPQTV-NH2] (5FAM-G[pY]LPQTV-NH2)

Kd ([1]; SD): 160 ± 6 nM
Molecule: CC[C@H](C)[C@H](NC(=O)[C@H](CC(N)=O)NC(=O)[C@H](CO)NC(=O)[C@@H]1CCCN1C(=O)[C@H](CC(C)C)NC(=O)[C@H](Cc1ccc(OP(=O)(O)O)cc1)NC(=O)CNC(=O)c1ccc2c(c1)C(=O)OC21c2ccc(O)cc2Oc2cc(O)ccc21)C(=O)N[C@@H](CC(=O)O)C(=O)O [5-CF-GpYLPSNID] (5FAM-G[pY]LPSNID-OH)

Kd ([1]; SD): 93 ± 8 nM
fold lower affinity for STAT4 than 5-CF-GpYLPQNID ([1]; 10 nM labelled peptide): 3 fold
Molecule: CC[C@H](C)[C@H](NC(=O)[C@H](CC(C)C)NC(=O)[C@H](CC(=O)O)NC(=O)[C@H](CCC(N)=O)NC(=O)[C@H](Cc1c[nH]c2ccccc12)NC(=O)[C@@H]1CCCN1C(=O)[C@@H](NC(=O)[C@H](Cc1ccc(OP(=O)(O)O)cc1)NC(=O)CNC(=O)c1ccc2c(c1)C(=O)OC21c2ccc(O)cc2Oc2cc(O)ccc21)C(C)C)C(=O)O [5-CF-GpYVPWQDLI] (5FAM-G[pY]VPWQDLI-OH)

IC50 [5]: 490 ± 40 nM
extrapolated maximum inhibition at infinite peptide concentrations ([5]; extrapolated from inhibition curve): 98.4 ± 0.9%
inhibition at 40 µM ([5]; read-out: Inhibition at 40 µM): 96%
Molecule: CC[C@H](C)[C@H](NC(=O)[C@H](CC(N)=O)NC(=O)[C@H](CCC(N)=O)NC(=O)[C@@H]1CCCN1C(=O)[C@H](CC(C)C)NC(=O)[C@H](Cc1ccc(OP(=O)(O)O)cc1)NC(=O)CNC(C)=O)C(=O)N[C@@H](CC(=O)O)C(=O)O [Ac-GpYLPQNID] (Ac-G[pY]LPQNID-OH)

inhibition ([5]; read-out: Inhibition at 40 µM, 40 µM unlabelled peptide (highest concentration tested)): 37 ± 4%
Molecule: GpYEEIP

inhibition ([5]; read-out: Inhibition at 40 µM, 40 µM unlabelled peptide, n = 2): 2 ± 2%
inhibitory effect on STAT4 (in words) ([5]; up to 40 µM): no detectable inhibitory effect
Molecule: MAGPMQSpTPLNGAKK

Kd [7]: 267 nM
Kd [8]: 1230 nM
Kd [9]: 82 nM
B1: STAT4 SH2 (protein)
chain: LPLWIDGYVMGFVSKEKERLLLKDKMPGTFLLRFSESHLGGITFTWVDHSESGEVRFHSVEPYNKGRLSALPFADILRDYKVIMAENIPENPLKYLYPDIPK
